In ChEMBL document CHEMBL2385046, “Dihydrooxazines As Inhibitors of BACE-1 or BACE-2” (ACS Med Chem Lett, 2013):

Experiments:
Beta-secretase (BACE) = Beta-secretase (BACE) (Homo sapiens, UniProt Q9Y5Z0+P56817); experiment: Inhibition of BACE1/BACE2 (unknown origin) transfected in CHO cells assessed as release of amyloid beta (1 to 40) after 24 hrs by immunoassay; type: cell-based
Rattus norvegicus [1] = experiment: Antialzheimer activity in Sprague-Dawley rat assessed as lowering of amyloid beta level in forebrain at 10 mg/kg, po after 4 hrs relative to vehicle-treated control; type: functional
Rattus norvegicus [2] = experiment: Antialzheimer activity in Sprague-Dawley rat assessed as lowering of amyloid beta level in CSF at 10 mg/kg, po after 4 hrs relative to vehicle-treated control; type: functional
Beta-secretase 2 = biological target: T1, Beta-secretase 2 (Homo sapiens, UniProt Q9Y5Z0); experiment: Inhibition of recombinant human BACE2 extracellular domain expressed in baculovirus using Q-C(HS03)-lle-Asp-Leu-Ala-Val-Leu-Asp-HN-CH2-CH2-Mca as substrate incubated for 1 hr measured every 1 min for 15 mins by fluorescence assay
T1 sequence (Q9Y5Z0 whole entry): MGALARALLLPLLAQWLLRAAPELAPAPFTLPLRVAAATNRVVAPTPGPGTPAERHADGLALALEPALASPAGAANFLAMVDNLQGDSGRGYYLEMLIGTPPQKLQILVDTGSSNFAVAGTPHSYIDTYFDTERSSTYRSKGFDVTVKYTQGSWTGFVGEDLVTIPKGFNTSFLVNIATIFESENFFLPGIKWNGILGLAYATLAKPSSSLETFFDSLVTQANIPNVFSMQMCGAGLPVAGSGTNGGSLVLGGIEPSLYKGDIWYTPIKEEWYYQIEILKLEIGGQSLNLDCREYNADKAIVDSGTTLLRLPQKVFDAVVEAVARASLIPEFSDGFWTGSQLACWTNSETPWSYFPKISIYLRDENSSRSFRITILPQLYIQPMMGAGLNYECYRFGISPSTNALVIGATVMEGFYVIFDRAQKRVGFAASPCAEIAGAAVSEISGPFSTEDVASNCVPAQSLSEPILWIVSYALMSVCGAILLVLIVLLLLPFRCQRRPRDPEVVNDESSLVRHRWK

Beta-secretase 1 = Beta-secretase 1 (Homo sapiens, UniProt P56817); experiment: Inhibition of recombinant human BACE1 extracellular domain expressed in baculovirus using Q-C(HS03)-lle-Asp-Leu-Ala-Val-Leu-Asp-HN-CH2-CH2-Mca as substrate incubated for 1 hr measured every 1 min for 15 mins by fluorescence assay
Sequence of Beta-secretase 1 (P56817 whole entry, the tested form may be a part): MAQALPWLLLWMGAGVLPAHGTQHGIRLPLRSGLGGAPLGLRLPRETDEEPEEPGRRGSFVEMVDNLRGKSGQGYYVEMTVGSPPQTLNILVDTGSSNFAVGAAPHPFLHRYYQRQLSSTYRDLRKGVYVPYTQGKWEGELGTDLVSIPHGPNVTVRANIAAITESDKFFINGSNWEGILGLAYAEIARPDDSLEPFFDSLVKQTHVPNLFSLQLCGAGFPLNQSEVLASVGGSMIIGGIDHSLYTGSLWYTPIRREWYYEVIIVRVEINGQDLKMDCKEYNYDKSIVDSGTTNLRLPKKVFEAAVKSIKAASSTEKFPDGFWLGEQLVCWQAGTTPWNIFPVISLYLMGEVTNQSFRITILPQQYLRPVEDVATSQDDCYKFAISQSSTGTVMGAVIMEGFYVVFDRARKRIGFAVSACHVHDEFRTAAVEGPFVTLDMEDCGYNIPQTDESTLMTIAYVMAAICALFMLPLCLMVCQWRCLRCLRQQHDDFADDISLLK

IC50 (Beta-secretase (BACE)) [µM]	IC50 (Beta-secretase 2) [µM]	IC50 (Beta-secretase 1) [µM]	SMILES	Activity (Rattus norvegicus [1]) [%]	Activity (Rattus norvegicus [2]) [%]
0.44	–	–	C[C@]1(c2nc(NC(=O)c3ncc(OCC(F)F)nc3N)ccc2F)N=C(N)OCC1(F)F	–	–
0.013	–	–	C[C@]1(c2nc(NC(=O)c3nn(C(F)F)cc3Cl)ccc2F)N=C(N)OCC1(F)F	-46.6	-55.2
0.008	–	–	C[C@]1(c2nc(NC(=O)c3ncc(C#N)cc3Cl)ccc2F)N=C(N)OCC1(F)F	-67.1	-70.7
0.007	0.066	0.012	C[C@]1(c2nc(NC(=O)c3ccc(C#N)cn3)ccc2F)N=C(N)OCC1(F)F	–	–
0.012	–	–	C[C@]1(c2nc(NC(=O)c3ncc(Cl)cc3Cl)ccc2F)N=C(N)OCC1(F)F	–	–
–	–	–	CC1(C)OC(N)=N[C@](C)(c2nc(NC(=O)c3ncc(C#N)cc3Cl)ccc2F)C1(F)F	-20	-35.3
–	–	–	C[C@]1(c2nc(NC(=O)c3ncc(C(F)(F)F)cc3Cl)ccc2F)N=C(N)OCC1(F)F	-63.6	-67.9
